Ends that are not written are not given here.
What was measured:
[1] = Electronic tongue analysis (Taste-Sensing System SA 402B); parameters: unit not given here; details: reference solution 30 mM KCl + 0.3 mM tartaric acid as baseline, first measurement excluded; for Umami: sensor AAE; for Umami / Bitter / Sweet: detection threshold 0, room temperature; for Umami / Bitter / Sour / Salty: four replicates; for Sour: detection threshold -13, room temperature; for Salty: detection threshold -6, room temperature; for Sweet: measured five times
Procedure, shortened: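 Room-temperature electronic-tongue readings with five taste probes, calibrated against a reference of 30 mM KCl and 0.3 mM tartaric acid. Samples at 0.1 mg/mL and 1.0 mg/mL were measured four times, sweetness five times, and the first run was dropped. Detection cut-offs were sour −13, salty −6, others 0.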

[2] = system: human bronchial epithelial cells (BEAS-2B)
[3] = system: human embryonic kidney cells (HEK293T)
[4] = system: human pancreatic ductal epithelial cells (HPNE)
[5] = system: human umbilical vein endothelial cells (HUVEC)
Protocol: The cytotoxicity of 73 synthetic peptides was evaluated using four human cell lines: human pancreatic ductal epithelial cells (HPNE), human embryonic kidney cells (HEK293T), human umbilical vein endothelial cells (HUVEC), and human bronchial epithelial cells (BEAS-2B). When cell density reached 70% confluence, the complete culture medium was replaced with serum-free maintenance medium, and peptides were added at a final concentration of 100 μM for 36 h. Control groups received only serum-free maintenance medium without peptides. Cell proliferation was assessed using the CCK-8 assay kit (Solarbio, CA1210) according to the manufacturer’s instructions.

| Substance | Umami ([1]; peptide 0.1 mg/mL) | Umami ([1]; peptide 1 mg/mL) | Bitter ([1]; sensor C00, peptide 0.1 mg/mL) | Bitter ([1]; sensor C00, peptide 1 mg/mL) | Sour ([1]; sensor CA0, peptide 0.1 mg/mL) | Sour ([1]; sensor CA0, peptide 1 mg/mL) | Salty ([1]; sensor CT0, peptide 0.1 mg/mL) | Salty ([1]; sensor CT0, peptide 1 mg/mL) | Sweet ([1]; sensor GL1, peptide 0.1 mg/mL) | Sweet ([1]; sensor GL1, peptide 1 mg/mL) | Average cell viability, BEAS-2B [2] | Cell viability, BEAS-2B, Data1 [2] | Cell viability, BEAS-2B, Data2 [2] | Cell viability, BEAS-2B, Data3 [2] | Average cell viability, HEK293T [3] | Cell viability, HEK293T, Data1 [3] | Cell viability, HEK293T, Data2 [3] | Cell viability, HEK293T, Data3 [3] | Average cell viability, HPNE [4] | Cell viability, HPNE, Data1 [4] | other results |
| --- | --- | --- | --- | --- | --- | --- | --- | --- | --- | --- | --- | --- | --- | --- | --- | --- | --- | --- | --- | --- | --- |
| SAANT [TaPep31] | 1.69 | -4.82 | 7.84 | 2.76 | -3.49 | 12.70 | -19.57 | 12.57 | 8.41 | -5.90 | 110.70 | 118.64 | 100.10 | 113.36 | 99.34 | 102.02 | 100.41 | 95.58 | 100.40 | 105.82 | Cell viability, HPNE, Data2 [4]: 112.81; Cell viability, HPNE, Data3 [4]: 82.56; Average cell viability, HUVEC [5]: 99.39; Cell viability, HUVEC, Data1 [5]: 91.56; Cell viability, HUVEC, Data2 [5]: 100.67; Cell viability, HUVEC, Data3 [5]: 105.93 |
| SEGIQ [TaPep70] | 1.63 | -4.00 | 7.38 | 3.77 | -3.33 | 10.04 | -20.29 | 7.83 | 6.55 | -3.62 | 104.32 | 109.87 | 102.79 | 100.30 | 99.37 | 100.88 | 96.25 | 100.98 | 105.19 | 112.61 | Cell viability, HPNE, Data2 [4]: 102.83; Cell viability, HPNE, Data3 [4]: 100.13; Average cell viability, HUVEC [5]: 107.56; Cell viability, HUVEC, Data1 [5]: 113.68; Cell viability, HUVEC, Data2 [5]: 110.32; Cell viability, HUVEC, Data3 [5]: 98.67 |
| SKKEV [TaPep65] | 1.85 | -4.04 | 7.27 | 4.02 | -3.95 | 10.48 | -17.33 | 11.34 | 2.66 | -3.79 | 100.70 | 99.80 | 89.83 | 112.46 | 97.48 | 94.54 | 99.27 | 98.61 | 94.98 | 94.04 | Cell viability, HPNE, Data2 [4]: 105.12; Cell viability, HPNE, Data3 [4]: 85.76; Average cell viability, HUVEC [5]: 96.89; Cell viability, HUVEC, Data1 [5]: 105.14; Cell viability, HUVEC, Data2 [5]: 94.76; Cell viability, HUVEC, Data3 [5]: 90.77 |
| SLEYEFK [TaPep38] | 2.66 | -3.92 | 7.67 | 3.12 | -5.92 | 9.17 | -19.89 | 10.85 | 7.68 | -5.11 | 103.09 | 93.12 | 112.36 | 103.79 | 98.90 | 94.16 | 101.26 | 101.26 | 96.57 | 86.36 | Cell viability, HPNE, Data2 [4]: 94.14; Cell viability, HPNE, Data3 [4]: 109.22; Average cell viability, HUVEC [5]: 107.74; Cell viability, HUVEC, Data1 [5]: 112.64; Cell viability, HUVEC, Data2 [5]: 110.32; Cell viability, HUVEC, Data3 [5]: 100.27 |
| SLEYLP [TaPep35] | 1.93 | -4.82 | 7.64 | 2.77 | -3.84 | 12.93 | -20.10 | 10.87 | 8.65 | -7.23 | 109.54 | 106.58 | 102.99 | 119.04 | 98.64 | 104.29 | 94.35 | 97.29 | 109.88 | 105.12 | Cell viability, HPNE, Data2 [4]: 118.20; Cell viability, HPNE, Data3 [4]: 106.32; Average cell viability, HUVEC [5]: 100.35; Cell viability, HUVEC, Data1 [5]: 100.75; Cell viability, HUVEC, Data2 [5]: 100.03; Cell viability, HUVEC, Data3 [5]: 100.27 |
| SNDPVA [TaPep71] | 1.39 | -5.94 | 7.30 | 4.11 | -2.77 | 14.75 | -20.93 | 9.59 | 5.63 | -5.65 | 108.14 | 100.40 | 109.77 | 114.26 | 97.98 | 102.11 | 95.68 | 96.15 | 94.64 | 86.86 | Cell viability, HPNE, Data2 [4]: 82.76; Cell viability, HPNE, Data3 [4]: 114.31; Average cell viability, HUVEC [5]: 96.51; Cell viability, HUVEC, Data1 [5]: 91.41; Cell viability, HUVEC, Data2 [5]: 97.95; Cell viability, HUVEC, Data3 [5]: 100.19 |
| STGTIR [TaPep51] | 3.88 | -2.27 | 9.91 | 7.16 | -8.80 | 5.93 | -19.53 | 8.48 | 12.64 | -1.16 | 98.34 | 100.20 | 97.01 | 97.81 | 100.60 | 100.60 | 99.65 | 101.55 | 102.86 | 115.31 | Cell viability, HPNE, Data2 [4]: 89.05; Cell viability, HPNE, Data3 [4]: 104.23; Average cell viability, HUVEC [5]: 103.43; Cell viability, HUVEC, Data1 [5]: 102.66; Cell viability, HUVEC, Data2 [5]: 96.59; Cell viability, HUVEC, Data3 [5]: 111.04 |
